# Results taken from patent US10597388B2, “Pyridazinone herbicides” (FMC CORPORATION, priority 2014, dated 2020).
# What was measured:
# Test in all cases: Test E greenhouse herbicide test, pre- and postemergence
# Type in all cases: in vivo
# [1] = system: crabgrass, Brazilian (Brazilian crabgrass, Digitaria horizontalis)
# In short: (§1)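 Pre- and postemergence sprays, same solvent–surfactant formulation. Substrate: silt loam (pre), peat-based mix (post, 1–4 leaf, 2–18 cm). Readout: visual control rating 0–100 against controls at 14–21 d.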
# [2] = system: barnyardgrass (Echinochloa crus-galli)
# In short: as §1
# [3] = system: pigweed, palmer (palmer pigweed, Amaranthus palmeri)
# In short: as §1
# kochia (Kochia scoparia) = system: kochia (Kochia scoparia)
# In short: as §1
# [4] = system: dayflower (Virginia (VA) dayflower, Commelina virginica)
# In short: as §1
# [5] = system: goosegrass (Eleusine indica); settings: Preemergence
# In short: as §1
# [6] = system: waterhemp (common waterhemp, Amaranthus rudis)
# In short: as §1
# [7] = system: nutsedge, yellow (yellow nutsedge, Cyperus esculentus); settings: Preemergence
# In short: as §1
# [8] = system: johnsongrass (Sorghum halepense); settings: Preemergence
# In short: as §1
# [9] = system: surinam grass (Brachiaria decumbens); settings: Preemergence
# In short: as §1
# [10] = 62 g ai/ha, Postemergence, scale 0 to 100 (0 no effect, 100 complete control)
# [11] = 62 g ai/ha, Preemergence, scale 0 to 100 (0 no effect, 100 complete control)
# [12] = 125 g ai/ha, Postemergence, scale 0 to 100 (0 no effect, 100 complete control)
# [13] = 250 g ai/ha, Postemergence, scale 0 to 100 (0 no effect, 100 complete control)
# [14] = Postemergence, 31 g ai/ha, visual, scale 0 no effect to 100 complete control
# [15] = Preemergence, 31 g ai/ha, scale 0 to 100, 0 no effect, 100 complete control
# [16] = Preemergence, 125 g ai/ha, visual, scale 0 no effect to 100 complete control
# [17] = Preemergence, 250 g ai/ha, visual, scale 0 no effect to 100 complete control
# [18] = 125 g ai/ha, Preemergence, scale 0 to 100 (0 no effect, 100 complete control)
# [19] = 62 g ai/ha, scale 0 to 100 (0 no effect, 100 complete control)
# [20] = 31 g ai/ha, scale 0 to 100, 0 no effect, 100 complete control
# [21] = 125 g ai/ha, visual, scale 0 no effect to 100 complete control
# [22] = 250 g ai/ha, visual, scale 0 no effect to 100 complete control
# [23] = 125 g ai/ha, scale 0 to 100 (0 no effect, 100 complete control)
compound,measurement,setting,value
CCc1sc2ccc(C)cc2c1-c1c(O)c(C)nn(C)c1=O [Compound 47],"Plant response rating, Crabgrass, Brazil",[1]; [10],20
same,"Plant response rating, Crabgrass, Brazil",[1]; [11],0
same,"Plant response rating, Crabgrass, Brazil",[1]; [12],25
same,"Plant response rating, Crabgrass, Brazil",[1]; [13],40
same,"Plant response rating, Crabgrass, Brazil",[1]; [14],20
same,"Plant response rating, Crabgrass, Brazil",[1]; [15],0
same,"Plant response rating, Crabgrass, Brazil",[1]; [16],0
same,"Plant response rating, Crabgrass, Brazil",[1]; [17],60
same,"Plant response rating, Barnyardgrass",[2]; [10],30
same,"Plant response rating, Barnyardgrass",[2]; [11],0
same,"Plant response rating, Barnyardgrass",[2]; [12],40
same,"Plant response rating, Barnyardgrass",[2]; [13],60
same,"Plant response rating, Barnyardgrass",[2]; [14],10
same,"Plant response rating, Barnyardgrass",[2]; [15],0
same,"Plant response rating, Barnyardgrass",[2]; [16],50
same,"Plant response rating, Barnyardgrass",[2]; [17],95
same,"Plant response rating, Pigweed, Palmer",[3]; [10],35
same,"Plant response rating, Pigweed, Palmer",[3]; [11],0
same,"Plant response rating, Pigweed, Palmer",[3]; [12],30
same,"Plant response rating, Pigweed, Palmer",[3]; [18],25
same,"Plant response rating, Pigweed, Palmer",[3]; [13],70
same,"Plant response rating, Pigweed, Palmer",[3]; [14],35
same,"Plant response rating, Pigweed, Palmer",[3]; [15],0
same,"Plant response rating, Pigweed, Palmer",[3]; [17],65
same,"Plant response rating, Kochia",kochia (Kochia scoparia); [10],70
same,"Plant response rating, Kochia",kochia (Kochia scoparia); [11],85
same,"Plant response rating, Kochia",kochia (Kochia scoparia); [12],80
same,"Plant response rating, Kochia",kochia (Kochia scoparia); [13],85
same,"Plant response rating, Kochia",kochia (Kochia scoparia); [14],60
same,"Plant response rating, Kochia",kochia (Kochia scoparia); [15],0
same,"Plant response rating, Kochia",kochia (Kochia scoparia); [16],75
same,"Plant response rating, Kochia",kochia (Kochia scoparia); [17],100
same,"Plant response rating, Dayflower, VA",[4]; [10],5
same,"Plant response rating, Dayflower, VA",[4]; [11],0
same,"Plant response rating, Dayflower, VA",[4]; [12],0
same,"Plant response rating, Dayflower, VA",[4]; [13],10
same,"Plant response rating, Dayflower, VA",[4]; [14],0
same,"Plant response rating, Dayflower, VA",[4]; [15],0
same,"Plant response rating, Dayflower, VA",[4]; [16],0
same,"Plant response rating, Dayflower, VA",[4]; [17],80
same,"Plant response rating, Goosegrass",[5]; [19],0
same,"Plant response rating, Goosegrass",[5]; [20],0
same,"Plant response rating, Goosegrass",[5]; [21],0
same,"Plant response rating, Goosegrass",[5]; [22],0
same,"Plant response rating, Waterhemp",[6]; [10],80
same,"Plant response rating, Waterhemp",[6]; [11],90
same,"Plant response rating, Waterhemp",[6]; [12],85
same,"Plant response rating, Waterhemp",[6]; [18],90
same,"Plant response rating, Waterhemp",[6]; [13],100
same,"Plant response rating, Waterhemp",[6]; [14],75
same,"Plant response rating, Waterhemp",[6]; [15],50
same,"Plant response rating, Waterhemp",[6]; [17],100
same,"Plant response rating, Nutsedge, Yellow",[7]; [23],30
same,"Plant response rating, Nutsedge, Yellow",[7]; [20],0
same,"Plant response rating, Nutsedge, Yellow",[7]; [22],35
same,"Plant response rating, Johnsongrass",[8]; [19],0
same,"Plant response rating, Johnsongrass",[8]; [20],0
same,"Plant response rating, Johnsongrass",[8]; [21],0
same,"Plant response rating, Johnsongrass",[8]; [22],20
same,"Plant response rating, Surinam Grass",[9]; [19],0
same,"Plant response rating, Surinam Grass",[9]; [23],35
same,"Plant response rating, Surinam Grass",[9]; [20],0
same,"Plant response rating, Surinam Grass",[9]; [22],35
